Results taken from patent publication US20230131899A1, “INHIBITORS OF MICROBIALLY INDUCED AMYLOID” (Axial Therapeutics, Inc., priority 2020, published 2023).
Where two headings read alike, the source gives them in different places.

What was measured:
[1] = test system: CsgA gene expression (csgBAC promoter-GFP reporter) in E. coli UTI89; test: In vitro live cell fluorescent reporter assay of CsgA transcription (Reporter Assay); assay type: cell-based
How it was run: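 Compounds at 0.14–100 μM (1% DMSO final) incubated 20 h at 27 °C in YESCA broth with UTI89 carrying a single-copy GFP reporter under the csgBAC intergenic promoter region, inoculum OD600 0.003. Fluorescence normalized to vehicle wells gave IC50 and 50%-of-vehicle concentration; OD600 reduction >10% flagged growth impact.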

E. coli CsgA = molecular target: T1, E. coli CsgA (Escherichia coli, UniProt P28307); test: In vitro ThioflavinT assay of CsgA aggregation (CsgA ThT Assay); assay type: biochemical
T1 construct: made in house; host or cells: E. coli NEB 3016 slyD::kan, pET11d
T1 sequence (P28307 23-151): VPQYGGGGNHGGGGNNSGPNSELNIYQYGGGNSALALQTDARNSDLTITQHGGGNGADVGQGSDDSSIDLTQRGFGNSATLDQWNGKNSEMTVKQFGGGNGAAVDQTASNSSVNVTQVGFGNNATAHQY
How it was run: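 Purified C-terminal His-tagged CsgA, monomerised by desalting and 30-kDa filtration, at 2-20 μM with 20-40 μM ThT in 50 mM potassium phosphate pH 7.3, 1% DMSO, compounds 3.125-200 uM; room temperature, fluorescence (ex 438/em 495 nm) read every 15 min. Background-subtracted signal expressed as percent inhibition versus vehicle at 6-6.5 or 8-9 h, or as percent control AUC.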

[2] = Escherichia coli, read-out: Reporter Assay Abs IC50 (μM), median Abs IC50 in the CsgA reporter assay, N/A = maximum expression reduction is <50% of control
[3] = Escherichia coli, read-out: Reporter Assay Abs IC50, activity range, class symbol
[4] = read-out: CsgA ThT Assay (2 μM CsgA) % Control Bmax 25 μM, activity range, class symbol, CsgA 2 μM, white plates, compound 25 μM
[5] = read-out: CsgA ThT Assay (2 μM CsgA) % Control Bmax 25 μM, mean Bmax as percentage of DMSO control, CsgA 2 μM, white plates, compound 25 μM
[6] = read-out: CsgA ThT Assay (2 μM CsgA) % Control Bmax 100 μM, activity range, class symbol, CsgA 2 μM, white plates, compound 100 μM
[7] = read-out: CsgA ThT Assay (2 μM CsgA) % Control Bmax 100 μM, mean Bmax as percentage of DMSO control, CsgA 2 μM, white plates, compound 100 μM
[8] = Escherichia coli, read-out: Reporter Assay Abs IC50 (activity range), median Abs IC50 in the CsgA reporter assay, class symbol
[9] = read-out: CsgA ThT Assay (10 μM CsgA) % Control AUC at 1005 minutes, 25 μM (activity range), CsgA 10 μM, black plates, compound 25 μM, 1005 minutes, class symbol
[10] = read-out: CsgA ThT Assay (10 μM CsgA) % Control AUC at 1005 minutes, 25 μM, mean AUC as % of DMSO control, CsgA 10 μM, black plates, compound 25 μM, 1005 minutes
[11] = read-out: CsgA ThT Assay (10 μM CsgA) % Control AUC at 1005 minutes, 100 μM (activity range), CsgA 10 μM, black plates, compound 100 μM, 1005 minutes, class symbol
[12] = read-out: CsgA ThT Assay (10 μM CsgA) % Control AUC at 1005 minutes, 100 μM, mean AUC as % of DMSO control, CsgA 10 μM, black plates, compound 100 μM, 1005 minutes

Row | SMILES | IC50 [1, 2] [µM] | IC50 [1, 3] [µM] | remaining activity at 25 µM (E. coli CsgA; [4]) [%] | remaining activity at 25 µM (E. coli CsgA; [5]) [%] | remaining activity at 100 µM (E. coli CsgA; [6]) [%] | remaining activity at 100 µM (E. coli CsgA; [7]) [%] | IC50 [1, 8] [µM] | remaining activity at 25 µM (E. coli CsgA; [9]) [%] | remaining activity at 25 µM (E. coli CsgA; [10]) [%] | remaining activity at 100 µM (E. coli CsgA; [11]) [%] | remaining activity at 100 µM (E. coli CsgA; [12]) [%] | IC50 ([1]; read-out: Reporter Assay Abs IC50 (activity range), median Abs IC50 in the CsgA reporter assay, class symbol) [µM] | IC50 ([1]; read-out: Reporter Assay Abs IC50, median Abs IC50 in the CsgA reporter assay, N/A = maximum expression reduction is <50% of control) [µM] | CsgA ThT Assay (10 μM CsgA) % Control AUC at 1005 minutes, 25 μM (activity range) (E. coli CsgA; CsgA 10 μM, black plates, compound 25 μM, 1005 minutes, class symbol) | CsgA ThT Assay (10 μM CsgA) % Control AUC at 1005 minutes, 100 μM (activity range) (E. coli CsgA; CsgA 10 μM, black plates, compound 100 μM, 1005 minutes, class symbol) | CsgA ThT Assay (10 μM CsgA) % Control AUC at 1005 minutes, 25 μM (E. coli CsgA; mean AUC as % of DMSO control, CsgA 10 μM, black plates, compound 25 μM, 1005 minutes) [%] | CsgA ThT Assay (10 μM CsgA) % Control AUC at 1005 minutes, 100 μM (E. coli CsgA; mean AUC as % of DMSO control, CsgA 10 μM, black plates, compound 100 μM, 1005 minutes) [%]
1 | O=C(O)C1CN(Cc2ccccn2)c2c(-c3cccc(C(F)(F)F)c3)c(Cc3cccc4ccccc34)c(Cl)c(=O)n21 (stereo not drawn) [Compound 166, 6-chloro-7-(naphthalen-1-ylmethyl)-5-oxo-1-(pyridin-2-ylmethyl)-8-(3-(trifluoromethyl)phenyl)-1,2,3,5-tetrahydroimidazo[1,2-a]pyridine-3-carboxylic acid] | 2.5 | 1.3 to 4.5 | > 60 | 72 | 31 to 60 | 40 | – | – | – | – | – | – | – | – | – | – | –
2 | O=C(O)c1c(Cc2cccc3ccccc23)c(-c2cccc(C(F)(F)F)c2)c2n(c1=O)C(C(=O)O)CN2Cc1ccccc1 (stereo not drawn) [Compound 209, 1-benzyl-7-(naphthalen-1-ylmethyl)-5-oxo-8-(3-(trifluoromethyl)phenyl)-1,2,3,5-tetrahydroimidazo[1,2-a]pyridine-3,6-dicarboxylic acid] | 6.6 | 4.6 to 10 | > 60 | 81 | > 60 | 64 | – | – | – | – | – | – | – | – | – | – | –
3 | C/C=C/c1c(Cc2cccc3ccccc23)c(-c2cccc(C(F)(F)F)c2)c2n(c1=O)C(C(=O)O)CN(C)S2(=O)=O (stereo not drawn) [Compound 088, (E)-2-methyl-8-(naphthalen-1-ylmethyl)-6-oxo-7-(prop-1-en-1-yl)-9-(3-(trifluoromethyl)phenyl)-3,4-dihydro-2H,6H-pyrido[1,2-e][1,2,5]thiadiazine-4-carboxylic acid 1,1-dioxide] | 5.2 | – | – | – | – | – | 4.6 to 10 | 31 to 60 | 36 | 11 to 31 | 26 | – | – | – | – | – | –
4 | O=C(O)C1CSc2c(-c3cccc(C(F)(F)F)c3)c(Cc3cccc4ccccc34)cc(=O)n21 (single isomer, unassigned) [Compound 011b, 7-(naphthalen-1-ylmethyl)-5-oxo-8-(3-(trifluoromethyl)phenyl)-2,3-dihydro-5H-thiazolo[3,2-a]pyridine-3-carboxylic acid] | – | – | – | – | – | – | – | – | – | – | – | 1.3 to 4.5 | 4.1 | (++) (% control AUC of 31 to 60%) | (++) (% control AUC of 31 to 60%) | 54 | 53
5 | NC(=O)c1c(Cc2cccc3ccccc23)c(-c2cccc(C(F)(F)F)c2)c2n(c1=O)C(C(=O)O)CN2Cc1ccccc1 (stereo not drawn) [Compound 203, 1-benzyl-6-carbamoyl-7-(naphthalen-1-ylmethyl)-5-oxo-8-(3-(trifluoromethyl)phenyl)-1,2,3,5-tetrahydroimidazo[1,2-a]pyridine-3-carboxylic acid] | 1.1 | < 1.3 | > 60 | 62 | > 60 | 64 | – | – | – | – | – | – | – | – | – | – | –
6 | O=C(O)C1CN(C2CCCC2)S(=O)(=O)c2c(-c3cccc(C(F)(F)F)c3)c(Cc3cccc4ccccc34)c(NC3CCCC3)c(=O)n21 (stereo not drawn) [Compound 150, 2-cyclopentyl-7-(cyclopentylamino)-8-(naphthalen-1-ylmethyl)-6-oxo-9-(3-(trifluoromethyl)phenyl)-3,4-dihydro-2H,6H-pyrido[1,2-e][1,2,5]thiadiazine-4-carboxylic acid 1,1-dioxide] | 4.2 | 1.3 to 4.5 | > 60 | 78 | > 60 | 199 | – | – | – | – | – | – | – | – | – | – | –
7 | CN1CC(C(=O)O)n2c1c(-c1cccc(C(F)(F)F)c1)c(Cc1cccc3ccccc13)cc2=O (stereo not drawn) [Compound 104, 1-methyl-7-(naphthalen-1-ylmethyl)-5-oxo-8-(3-(trifluoromethyl)phenyl)-1,2,3,5-tetrahydroimidazo[1,2-a]pyridine-3-carboxylic acid] | 6 | – | – | – | – | – | 4.6 to 10 | > 60 | 82 | 31 to 60 | 52 | – | – | – | – | – | –
8 | O=C(O)C1CN(Cc2ccccc2)c2c(-c3cccc(C(F)(F)F)c3)c(Cc3cncc4ccccc34)c(Cl)c(=O)n21 (stereo not drawn) [Compound 210, 1-benzyl-6-chloro-7-(isoquinolin-4-ylmethyl)-5-oxo-8-(3-(trifluoromethyl)phenyl)-1,2,3,5-tetrahydroimidazo[1,2-a]pyridine-3-carboxylic acid] | 2.5 | 1.3 to 4.5 | > 60 | 79 | > 60 | 61 | – | – | – | – | – | – | – | – | – | – | –
9 | CCCCCN1CC(C(=O)O)n2c(c(-c3cccc(C(F)(F)F)c3)c(Cc3ccc(N)c4ccccc34)cc2=O)S1(=O)=O (stereo not drawn) [Compound 052] | 1.1 | – | – | – | – | – | < 1.3 | 31 to 60 | 42 | 11 to 31 | 20 | – | – | – | – | – | –
10 | O=C(c1nc(=O)n2c(c1-c1cccc(C(F)(F)F)c1)SCC2C(=O)O)c1cccc2ccccc12 (stereo not drawn) [Compound 055, 7-(1-naphthoyl)-5-oxo-8-(3-(trifluoromethyl)phenyl)-2,3-dihydro-5H-thiazolo[3,2-c]pyrimidine-3-carboxylic acid] | 11 | – | – | – | – | – | > 10 | > 60 | 73 | 11 to 31 | 17 | – | – | – | – | – | –
11 | CN(C)Cc1c(Cc2cccc3ccccc23)c(-c2cccc(C(F)(F)F)c2)c2n(c1=O)C(C(=O)O)CN(C)S2(=O)=O (stereo not drawn) [Compound 108, 7-((dimethylamino)methyl)-2-methyl-8-(naphthalen-1-ylmethyl)-6-oxo-9-(3-(trifluoromethyl)phenyl)-3,4-dihydro-2H,6H-pyrido[1,2-e][1,2,5]thiadiazine-4-carboxylic acid 1,1-dioxide] | 0.6 | – | – | – | – | – | < 1.3 | 11 to 31 | 14 | 11 to 31 | 25 | – | – | – | – | – | –
12 | CCc1c(Cc2cccc3ccccc23)c(-c2cccc(C(F)(F)F)c2)c2n(c1=O)C(C(=O)O)CN(C(C)C)S2(=O)=O (stereo not drawn) [Compound 115, 7-ethyl-2-isopropyl-8-(naphthalen-1-ylmethyl)-6-oxo-9-(3-(trifluoromethyl)phenyl)-3,4-dihydro-2H,6H-pyrido[1,2-e][1,2,5]thiadiazine-4-carboxylic acid 1,1-dioxide] | 7.2 | – | – | – | – | – | 4.6 to 10 | 31 to 60 | 35 | 11 to 31 | 23 | – | – | – | – | – | –
13 | O=C(O)C1CN(CC2CCCC2)S(=O)(=O)c2c(-c3cccc(C(F)(F)F)c3)c(Cc3cccc4ccccc34)c(NC3CCCC3)c(=O)n21 (stereo not drawn) [Compound 002, 7-(cyclopentylamino)-2-(cyclopentylmethyl)-8-(naphthalen-1-ylmethyl)-6-oxo-9-(3-(trifluoromethyl)phenyl)-3,4-dihydro-2H,6H-pyrido[1,2-e][1,2,5]thiadiazine-4-carboxylic acid 1,1-dioxide] | 4.1 | 1.3 to 4.5 | 31 to 60 | 60 | > 60 | 137 | – | – | – | – | – | – | – | – | – | – | –
